Source: ChEMBL document CHEMBL2375249, “Synthesis and biological evaluation of novel pyrrolidine-2,5-dione derivatives as potential antidepressant agents. Part 1” (Eur J Med Chem, 2013)
pKi: −log10 of the molar value.

How the values were obtained:
[1] = target: Sodium-dependent serotonin transporter (Rattus norvegicus, UniProt P31652); test: Displacement of [3H]-citalopram from SERT in rat cerebral cortex after 1 hr by liquid scintillation counting analysis; type: tissue-based
[2] = target: T1, 5-hydroxytryptamine receptor 1A (Rattus norvegicus, UniProt P19327); test: Displacement of [3H]-8-OH-DPAT from 5HT1A receptor in rat hippocampal membranes after 20 mins; type: cell membranes, Hippocampus, Membrane
T1 sequence (P19327 whole entry): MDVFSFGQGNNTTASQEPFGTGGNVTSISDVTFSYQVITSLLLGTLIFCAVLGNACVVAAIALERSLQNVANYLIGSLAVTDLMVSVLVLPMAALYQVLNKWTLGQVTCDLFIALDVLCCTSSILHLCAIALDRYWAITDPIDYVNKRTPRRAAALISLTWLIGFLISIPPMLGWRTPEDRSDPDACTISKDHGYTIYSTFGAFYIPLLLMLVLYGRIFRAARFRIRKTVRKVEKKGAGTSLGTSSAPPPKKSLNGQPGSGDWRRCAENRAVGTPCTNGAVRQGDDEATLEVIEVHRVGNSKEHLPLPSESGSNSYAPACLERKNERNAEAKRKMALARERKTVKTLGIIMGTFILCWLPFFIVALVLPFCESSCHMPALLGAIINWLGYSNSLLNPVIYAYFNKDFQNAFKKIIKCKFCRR

Mus musculus [3] = test: Induction of hypothermia in CD1 mouse assessed as change in rectal body temperature at 2.5 mg/kg, ip administered 30 mins prior to test measured after 90 mins relative to control; type: functional, organism-based; set-up: dose 2.5 mg/kg
Mus musculus [4] = test: Induction of hypothermia in CD1 mouse assessed as change in rectal body temperature at 2.5 mg/kg, ip administered 30 mins prior to test measured after 30 mins relative to control; type: functional, organism-based; set-up: dose 2.5 mg/kg
Mus musculus [5] = test: Induction of hypothermia in CD1 mouse assessed as change in rectal body temperature at 2.5 mg/kg, ip administered 30 mins prior to test measured after 120 mins relative to control; type: functional, organism-based; set-up: dose 2.5 mg/kg
Mus musculus [6] = test: Induction of hypothermia in CD1 mouse assessed as change in rectal body temperature at 2.5 mg/kg, ip administered 30 mins prior to test measured after 60 mins in presence of WAY 100635 relative to control; type: functional, organism-based; set-up: dose 2.5 mg/kg
Mus musculus [7] = test: Induction of hypothermia in CD1 mouse assessed as change in rectal body temperature at 5 mg/kg, ip administered 30 mins prior to test measured after 90 mins relative to control; type: functional, organism-based; set-up: dose 5 mg/kg
Mus musculus [8] = test: Induction of hypothermia in CD1 mouse assessed as change in rectal body temperature at 5 mg/kg, ip administered 30 mins prior to test measured after 120 mins relative to control; type: functional, organism-based; set-up: dose 5 mg/kg
Mus musculus [9] = test: Induction of hypothermia in CD1 mouse assessed as change in rectal body temperature at 2.5 mg/kg, ip administered 30 mins prior to test measured after 30 mins in presence of WAY 100635 relative to control; type: functional, organism-based; set-up: dose 2.5 mg/kg
Mus musculus [10] = test: Induction of hypothermia in CD1 mouse assessed as change in rectal body temperature at 5 mg/kg, ip administered 30 mins prior to test measured after 30 mins relative to control; type: functional, organism-based; set-up: dose 5 mg/kg
Mus musculus [11] = test: Induction of hypothermia in CD1 mouse assessed as change in rectal body temperature at 5 mg/kg, ip administered 30 mins prior to test measured after 60 mins relative to control; type: functional, organism-based; set-up: dose 5 mg/kg
Mus musculus [12] = test: Induction of hypothermia in CD1 mouse assessed as change in rectal body temperature at 2.5 mg/kg, ip administered 30 mins prior to test measured after 60 mins relative to control; type: functional, organism-based; set-up: dose 2.5 mg/kg
D(2) dopamine receptor = D(2) dopamine receptor (Homo sapiens, UniProt P14416); test: Displacement of [3H]-raclopride from human dopamine D2L receptor expressed in HEK293 cells after 1 hr; type: cell-based
[13] = target: 5-hydroxytryptamine receptor 7 (Homo sapiens, UniProt P34969); test: Displacement of [3H]-5CT from human 5HT7 receptor expressed in HEK293 cells after 1 hr; type: cell-based
[14] = target: 5-hydroxytryptamine receptor 6 (Homo sapiens, UniProt P50406); test: Displacement of [3H]-LSD from human 5HT6 receptor expressed in HEK293 cells after 1 hr; type: cell-based
[15] = target: 5-hydroxytryptamine receptor 2A (Rattus norvegicus, UniProt P14842); test: Displacement of [3H]-ketanserin from 5HT2A in rat cerebral cortex 20 mins by liquid scintillation counting analysis; type: tissue-based
Sequence of 5-hydroxytryptamine receptor 2A (P14842 whole entry): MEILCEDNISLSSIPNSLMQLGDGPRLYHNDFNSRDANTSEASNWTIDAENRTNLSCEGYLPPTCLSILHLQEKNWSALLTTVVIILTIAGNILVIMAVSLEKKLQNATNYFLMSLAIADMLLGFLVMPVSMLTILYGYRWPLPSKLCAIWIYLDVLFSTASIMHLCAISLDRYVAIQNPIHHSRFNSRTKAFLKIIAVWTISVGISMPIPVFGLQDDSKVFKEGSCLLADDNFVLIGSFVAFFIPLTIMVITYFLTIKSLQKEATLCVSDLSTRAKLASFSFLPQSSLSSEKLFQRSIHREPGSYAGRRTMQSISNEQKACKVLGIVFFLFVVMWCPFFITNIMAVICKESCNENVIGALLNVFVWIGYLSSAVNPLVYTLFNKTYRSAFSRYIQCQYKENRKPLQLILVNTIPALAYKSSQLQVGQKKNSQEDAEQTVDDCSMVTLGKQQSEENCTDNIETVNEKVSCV

Sequence of Sodium-dependent serotonin transporter (P31652 whole entry): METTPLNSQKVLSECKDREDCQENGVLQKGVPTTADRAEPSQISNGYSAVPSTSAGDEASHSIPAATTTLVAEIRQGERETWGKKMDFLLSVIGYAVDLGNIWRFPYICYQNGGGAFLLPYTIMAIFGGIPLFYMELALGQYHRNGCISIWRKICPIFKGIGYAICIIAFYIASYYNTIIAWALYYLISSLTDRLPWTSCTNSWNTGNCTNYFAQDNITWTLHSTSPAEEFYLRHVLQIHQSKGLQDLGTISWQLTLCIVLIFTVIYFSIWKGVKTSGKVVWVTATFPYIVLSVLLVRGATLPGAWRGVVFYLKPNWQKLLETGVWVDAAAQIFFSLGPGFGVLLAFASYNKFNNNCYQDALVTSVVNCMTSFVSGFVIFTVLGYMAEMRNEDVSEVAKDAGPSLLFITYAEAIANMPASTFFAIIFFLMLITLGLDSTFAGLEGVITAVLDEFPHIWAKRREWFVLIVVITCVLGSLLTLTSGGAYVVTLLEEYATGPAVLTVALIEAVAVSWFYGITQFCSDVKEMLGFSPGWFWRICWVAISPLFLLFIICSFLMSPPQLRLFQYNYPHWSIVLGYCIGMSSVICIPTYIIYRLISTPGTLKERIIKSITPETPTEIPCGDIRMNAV
Sequence of 5-hydroxytryptamine receptor 6 (P50406 whole entry): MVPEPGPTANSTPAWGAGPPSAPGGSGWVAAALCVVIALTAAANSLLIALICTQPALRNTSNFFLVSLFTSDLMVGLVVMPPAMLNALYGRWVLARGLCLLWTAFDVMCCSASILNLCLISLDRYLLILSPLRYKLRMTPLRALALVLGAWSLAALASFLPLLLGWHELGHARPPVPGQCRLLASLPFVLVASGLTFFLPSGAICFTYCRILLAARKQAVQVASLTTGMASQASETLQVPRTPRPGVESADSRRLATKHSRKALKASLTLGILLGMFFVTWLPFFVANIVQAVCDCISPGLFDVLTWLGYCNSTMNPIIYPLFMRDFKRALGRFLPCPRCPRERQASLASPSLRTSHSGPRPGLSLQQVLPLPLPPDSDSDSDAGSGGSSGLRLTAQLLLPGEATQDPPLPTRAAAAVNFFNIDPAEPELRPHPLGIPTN
Sequence of D(2) dopamine receptor (P14416 whole entry): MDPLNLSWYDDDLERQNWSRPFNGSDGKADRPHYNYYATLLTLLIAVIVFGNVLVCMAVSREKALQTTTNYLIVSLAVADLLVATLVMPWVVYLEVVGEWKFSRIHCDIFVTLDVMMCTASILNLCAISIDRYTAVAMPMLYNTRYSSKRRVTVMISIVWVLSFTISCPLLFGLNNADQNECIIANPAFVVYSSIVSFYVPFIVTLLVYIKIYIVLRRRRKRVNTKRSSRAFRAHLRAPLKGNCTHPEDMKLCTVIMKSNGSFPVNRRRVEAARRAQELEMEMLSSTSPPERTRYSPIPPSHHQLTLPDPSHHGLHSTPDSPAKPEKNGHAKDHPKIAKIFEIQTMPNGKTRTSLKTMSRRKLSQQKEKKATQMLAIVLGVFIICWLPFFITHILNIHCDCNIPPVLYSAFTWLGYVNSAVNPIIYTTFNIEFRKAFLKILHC
Sequence of 5-hydroxytryptamine receptor 7 (P34969 whole entry): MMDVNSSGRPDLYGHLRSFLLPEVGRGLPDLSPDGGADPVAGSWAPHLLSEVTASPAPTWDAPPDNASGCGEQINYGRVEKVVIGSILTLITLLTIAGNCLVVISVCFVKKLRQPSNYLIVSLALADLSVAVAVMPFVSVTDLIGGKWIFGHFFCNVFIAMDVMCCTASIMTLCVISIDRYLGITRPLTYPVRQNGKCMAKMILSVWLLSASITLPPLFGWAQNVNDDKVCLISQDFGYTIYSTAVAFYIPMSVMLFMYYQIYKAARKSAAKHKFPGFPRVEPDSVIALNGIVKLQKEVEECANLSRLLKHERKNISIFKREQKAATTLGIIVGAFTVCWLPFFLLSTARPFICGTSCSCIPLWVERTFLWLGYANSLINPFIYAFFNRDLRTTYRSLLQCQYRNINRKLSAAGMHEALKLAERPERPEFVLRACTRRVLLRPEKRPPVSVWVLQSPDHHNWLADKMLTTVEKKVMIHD

| pKi [1] | pKi [2] | SMILES | also measured |
| --- | --- | --- | --- |
| 7.29 | 6.54 | O=C1CC(c2c[nH]c3ccccc23)C(=O)N1CCCN1CC=C(c2c[nH]c3ccc(Cl)cc23)CC1 (racemic) |  |
| 6.74 | 6.96 | O=C1CC(c2c[nH]c3ccccc23)C(=O)N1CCCN1CC=C(c2c[nH]c3ccc(Br)cc23)CC1 (racemic) |  |
| 8.28 | 6.97 | O=C1CC(c2c[nH]c3ccccc23)C(=O)N1CCCN1CC=C(c2c[nH]c3ccc(F)cc23)CC1 (racemic) |  |
| 6.90 | 6.68 | COc1ccc2[nH]cc(C3=CCN(CCCN4C(=O)CC(c5c[nH]c6ccccc56)C4=O)CC3)c2c1 (racemic) |  |
| 6.11 | 5.76 | COc1ccc2[nH]cc(C3=CCN(CCN4C(=O)CC(c5c[nH]c6ccccc56)C4=O)CC3)c2c1 (racemic) |  |
| 8.24 | 7.80 | O=C1CC(c2c[nH]c3ccccc23)C(=O)N1CCCCN1CCC(c2c[nH]c3ccccc23)CC1 (racemic) | deltaT (Mus musculus [3]): -1.3 °C; deltaT (Mus musculus [4]): -1.3 °C; deltaT (Mus musculus [5]): -1.2 °C; deltaT (Mus musculus [6]): -1.1 °C; deltaT (Mus musculus [7]): -2.1 °C; deltaT (Mus musculus [8]): -2.1 °C; deltaT (Mus musculus [9]): -1 °C; deltaT (Mus musculus [10]): -2.4 °C; deltaT (Mus musculus [11]): -2.8 °C; deltaT (Mus musculus [12]): -1.5 °C |
| 6.30 | 8.12 | O=C1CC(c2c[nH]c3ccccc23)C(=O)N1CCCCN1CCC(c2c[nH]c3ccc(F)cc23)CC1 (racemic) | pKi (D(2) dopamine receptor): 7.85; pKi [13]: 6.71; pKi [14]: 7.20; pKi [15]: 7.15 |
| 6.68 | 8.66 | COc1ccc2[nH]cc(C3CCN(CCCCN4C(=O)CC(c5c[nH]c6ccccc56)C4=O)CC3)c2c1 (racemic) | pKi (D(2) dopamine receptor): 6.79; pKi [13]: 6.46; pKi [14]: 6.80; pKi [15]: 6.30 |
| 6.45 | 7.16 | O=C1CC(c2c[nH]c3ccccc23)C(=O)N1CCCN1CCC(c2c[nH]c3ccccc23)CC1 (racemic) |  |

| SMILES | pKi [1] | pKi [2] | also measured |
| --- | --- | --- | --- |
| O=C1CC(c2c[nH]c3ccccc23)C(=O)N1CCN1CC=C(c2c[nH]c3ccccc23)CC1 (racemic) | 7.47 | 6.60 |  |
| O=C1CC(c2c[nH]c3ccccc23)C(=O)N1CCN1CC=C(c2c[nH]c3ccc(Cl)cc23)CC1 (racemic) | 7.01 | 6.39 |  |
| O=C1CC(c2c[nH]c3ccccc23)C(=O)N1CCN1CC=C(c2c[nH]c3ccc(Br)cc23)CC1 (racemic) | 6.17 | 6.49 |  |
| O=C1CC(c2c[nH]c3ccccc23)C(=O)N1CCN1CC=C(c2c[nH]c3ccc(F)cc23)CC1 (racemic) | 7.16 | 6.43 |  |
